*1 amine or outer side, *2 acyl side, *3 side chain or, on linkers, in order; H or OH if unused. Where a SMILES comes first, the peptide text is derived from it. CO = O=C([*:1])[*:2] Where only a bound is given, the exact number is not on record here.

In one test the target is T1, papain (Carica papaya, UniProt P00784).
T1 construct: purchased Sigma Chemical Company (St. Louis, Mo.)
T1 sequence (P00784 134-345): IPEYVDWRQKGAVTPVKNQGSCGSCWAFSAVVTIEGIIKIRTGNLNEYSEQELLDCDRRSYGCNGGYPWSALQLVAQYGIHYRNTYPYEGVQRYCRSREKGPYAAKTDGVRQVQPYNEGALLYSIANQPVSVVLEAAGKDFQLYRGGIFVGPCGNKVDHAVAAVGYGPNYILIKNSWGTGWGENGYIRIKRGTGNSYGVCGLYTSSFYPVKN
The test is described as follows: Inhibition of papain esterolytic activity by antipain and leupeptin (BAEE substrate, pH stat). It counts as biochemical. Conditions: for effect of the presence of IgG substrate on inhibitory activity: 10 mg of human IgG present; for time to inhibit 100% of papain activity: inhibitor 0.4 mg/ml; for Time: time to the stated inhibition. As for the experimental part:
(§1) Papain activity was assayed using N-benzoyl-L-arginine ethyl ester in a pH stat and pepsin activity using hemoglobin substrate, according to the procedures given in the Worthington Enzyme Manual.
The ability of antipain and leupeptin to modify papain activity was checked with enzyme, both in the absence and in the presence of immunoglobulin substrate. A 0.5 mg aliquot of active papain was made up in the presence and in the absence of 10 mg of human IgG in 0.025M sodium phosphate buffer containing 10 mM EDTA and 50 mM cysteine (pH 6.2). To each sample, different amounts of either antipain or leupeptin were added and then incubated at 23° C. for 5 minutes. An aliquot of this enzyme was diluted in the same buffer and assayed for papain activity using BAEE as the substrate in the pH stat.

Another test has as its system avidin-agarose. The test is described as follows: Binding of biotinylated papain to avidin-agarose column. Conditions: 0.5 mg through a 1 ml column, pH 8.5 buffer. The text has this:
The column was eluted with a pH 8.5 buffer and the absorbance of the eluting fractions were monitored at 280 nm.

A short description of test [1]: Papain activity assay using N-benzoyl-L-arginine ethyl ester in a pH stat. The note with it: BAEE substrate. In kind it is biochemical. As for the experimental part:
as §1

For a further test, the system named is human IgG. The test is described as follows: Digestion of IgG to F(ab) by papain. In kind it is biochemical.
[2] abbreviates: read-out: inhibition of papain activity.
Where [3] appears, read: PAPAIN (0.5 mg) + IgG (10 mg), inhibitor 0.4 mg.
Where [4] appears, read: PAPAIN (0.5 mg), inhibitor 0.2 mg.
Where [5] appears, read: PAPAIN (0.5 mg), inhibitor 0.4 mg.

Protocol for human IgG: Typically, 10 mg of IgG in the papain digestion buffer (0,025M sodium phosphate, 10 mM EDTA, 50 mM cysteine, pH 6.2) was added to either 0.5 ml of activated immobilized papain (0.5 mg equivalent of free papain) or 0.5 mg of activated soluble papain in the digestion buffer. The proteolytic cleavage was carried out for various time intervals at 37° C. At the end of each incubation period, the immobilized papain sample was centrifuged to remove the protease and the supernatant transferred to another tube containing 0.5 ml of pH 8.5 buffer. The gel was washed once with 1 ml of pH 8.5 buffer and supernatants combined. In the case of soluble papain, 0.4 mg of antipain or leupeptin in water was added to inactivate the papain and the mixture diluted with 0.5 ml of pH 8.5 buffer.
The separation of inactivated papain from the rest of mixture was carried by one of two methods. According to one procedure, an excess of anti-papain IgG (3 mg) was added to complex with the inactivated papain and the Fab fragments were separated from the rest of the mixture by passing through a 1 ml protein A cartridge equilibrated with pH 8.5 buffer. This procedure removed both the protease and its antibody in the form of antigen-antibody complexes. The column was eluted with 5 ml of pH 8.5 buffer to collect the F(ab) fragments and the absorbance of the various fractions was read at 280 nm. In an alternative procedure, the reaction mixture was first passed through an immobilized column of antipapain IgG to remove the inactivated papain and then passed through a 1 ml protein A cartridge equilibrated with pH 8.5 buffer. The Fc and the undigested immunoglobulins were eluted from the protein A cartridge with an elution buffer (pH 3.5).
After 30 minutes incubation at 37° C., 0.4 mg of antipain was added to inactivate the enzyme and then 0.5 ml of pH 8.5 buffer added to the mixture. […] The effluent was passed through a protein A column to adsorb the Fc and the undigested IgG. The F(ab) fragments came out unabsorbed from the protein A column. […]

For `CC(=O)N[C@@H](CC(C)C)C(=O)N[C@@H](CC(C)C)C(=O)N[C@H](C=O)CCCNC(=N)N` [LEUPEPTIN, Leupeptin], the “effect of the presence of IgG substrate on inhibitory activity” value on papain was “did not affect”. On papain, the “time to inhibit 100% of papain activity” value is ≤ 1 min. Besides, the inhibition at 400 µg/mL at papain (setting [2]) was 100%. In addition, the “Time” value on papain (PAPAIN (0.5 mg) + IgG (10 mg), inhibitor 0.2 mg) is < 1 min; on papain (setting [3]), < 1 min; at papain (setting [4]), < 1 min; at papain (setting [5]), < 1 min.

Take `CC(C)[C@H](NC(=O)[C@H](CCCNC(=N)N)NC(=O)N[C@@H](Cc1ccccc1)C(=O)O)C(=O)N[C@H](C=O)CCCNC(=N)N` [ANTIPAIN, Antipain] ({Phe-CO}-Arg-Val-Arg-aldehyde): the “effect of the presence of IgG substrate on inhibitory activity” value at papain is on record as “did not affect”. Also, the “time to achieve 100% inhibition of papain activity” value on papain (inhibitor 0.05 mg/ml) was ≤ 15 min. For the same molecule, the “time to inhibit 100% of papain activity” value at papain was ≤ 1 min. Further, the inhibition at 50 µg/mL at papain (setting [2]) worked out at 100%. Moreover, the inhibition at 400 µg/mL at papain (setting [2]) is 100%. Also, the “Time” value stood at 15 min on papain (PAPAIN (0.5 mg) + IgG (10 mg), inhibitor 0.05 mg); 4 min at papain (PAPAIN (0.5 mg) + IgG (10 mg), inhibitor 0.1 mg); 1 min at papain (setting [3]); 15 min on papain (PAPAIN (0.5 mg), inhibitor 0.05 mg); 4 min at papain (PAPAIN (0.5 mg), inhibitor 0.1 mg); 1 min at papain (setting [4]). For the same molecule, the “Time” value on papain (setting [5]) came to 1 min.

B1: Papain: soluble protease from Sigma used to digest IgG to F(ab) (protein, UniProt P00784 134-345, looked up)
Papain: IPEYVDWRQKGAVTPVKNQGSCGSCWAFSAVVTIEGIIKIRTGNLNEYSEQELLDCDRRSYGCNGGYPWSALQLVAQYGIHYRNTYPYEGVQRYCRSREKGPYAAKTDGVRQVQPYNEGALLYSIANQPVSVVLEAAGKDFQLYRGGIFVGPCGNKVDHAVAAVGYGPNYILIKNSWGTGWGENGYIRIKRGTGNSYGVCGLYTSSFYPVKN
As to B1, the “% Binding to Avidin-Agarose” value in the test with avidin-agarose was found to be 0%. Besides, the “Activity (Unit/mg)” value in test [1] came out at 7.8 Unit/mg. In the test on human IgG (10 mg IgG, 0.5 mg enzyme, 37° C., 30 minutes), the “% Fab Generated” value worked out at 75%. Further, the “amount of F(ab) obtained relative to the immobilized form of the enzyme” value with human IgG (first 30 minutes) is on record as “double”. Moreover, in the test on human IgG (human IgG, within the first 30 minutes, 37° C.), the “digestion of the total IgG added to F(ab)” value is reported as 75%.

These data come from patent US5328834A, “Method for preparing immunoglobulin fragments” (UniSyn Technologies, Inc., priority 1989, dated 1994).
